Measured values reported in patent US8173653B2, “Pyridiazinone derivatives for the treatment of tumours” (Merck Patent Gesellschaft MIT Beschraenkter Haftung, priority 2005, dated 2012).

How the values were obtained:
TPR-Met/NIH3T3 cells = test: In-vivo test: subcutaneous TPR-Met/NIH3T3 tumour in Balb/C mice, tumour volume; conditions: female Balb/C mice, 200 mg/kg daily by gastric tube, 9 days
Description: Experimental procedure: Female Balb/C mice (breeder: Charles River Wiga) were 5 weeks old on arrival. They were acclimatised to our keeping conditions for 7 days. Each mouse was subsequently injected subcutaneously in the pelvic area with 4 million TPR-Met/NIH3T3 cells in 100 μl of PBS (without Ca++ and Mg++).
Measurement of the tumour volume: The length (L) and breadth (B) were measured using a Vernier calliper, and the tumour volume was calculated from the formula L×B×B/2.
Keeping conditions: 4 or 5 animals per cage, feeding with commercial mouse food (Sniff).

Met kinase = target: T1, Met kinase (Homo sapiens, UniProt P08581); test: Met kinase inhibition (enzyme assay), flashplate method; assay type: biochemical
T1 construct: 6His (N); purchased Upstate 14-526; host or cells: insect cells (Sf21; S. frugiperda), baculovirus
T1 sequence (P08581 974-1390 limits assumed): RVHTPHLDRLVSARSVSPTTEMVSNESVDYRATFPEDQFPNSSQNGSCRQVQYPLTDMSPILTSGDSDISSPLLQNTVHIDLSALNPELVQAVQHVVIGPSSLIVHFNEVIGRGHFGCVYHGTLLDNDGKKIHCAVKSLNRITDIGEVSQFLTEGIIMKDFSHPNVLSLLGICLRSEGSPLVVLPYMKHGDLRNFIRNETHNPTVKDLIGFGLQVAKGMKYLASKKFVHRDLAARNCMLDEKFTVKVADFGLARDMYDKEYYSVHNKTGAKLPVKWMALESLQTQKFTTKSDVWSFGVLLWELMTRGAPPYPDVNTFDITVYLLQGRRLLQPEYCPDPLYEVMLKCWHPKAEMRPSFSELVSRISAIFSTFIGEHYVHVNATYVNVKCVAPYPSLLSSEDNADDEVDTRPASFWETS
Description: Flashplate Method (Met Kinase)
The test plates used are 96-well Flashplate® microtitre plates from Perkin Elmer (Cat. No. SMP200). The components of the kinase reaction described below are pipetted into the assay plate. The Met kinase and the substrate poly Ala-Glu-Lys-Tyr, (PAGLT, 6:2:5:1), are incubated for 3 hrs at room temperature with radioactively labelled ^33P-ATP in the presence and absence of test substances in a total volume of 100 μl. The reaction is terminated using 150 μl of a 60 mM EDTA solution. After incubation for a further 30 min at room temperature, the supernatants are filtered off with suction, and the wells are washed three times with 200 μl of 0.9% NaCl solution each time. The measurement of the bound radioactivity is carried out by means of a scintillation measuring instrument (Topcount NXT, Perkin-Elmer).
The full value used is the inhibitor-free kinase reaction. This should be approximately in the range 6000-9000 cpm. The pharmacological zero value used is staurosporin in a final concentration of 0.1 mM. The inhibitory values (IC50) are determined using the RS1_MTS program.
Kinase reaction conditions per well: • 30 μl of assay buffer • 10 μl of substance to be tested in assay buffer with 10% of DMSO • 10 μl of ATP (final concentration 1 μM cold, 0.35 μCi of ^33P-ATP) • 50 μl of Met kinase/substrate mixture in assay buffer; (10 ng of enzyme/well, 50 ng of pAGLT/well)
Assay Buffer: • 50 mM HEPES • 3 mM magnesium chloride • 3 μM sodium orthovanadate • 3 mM manganese(II) chloride • 1 mM dithiothreitol (DTT) • pH=7.5 (to be set using sodium hydroxide)

Which “antitumoural action (tumour volume)” value (TPR-Met/NIH3T3 cells) does the source give for `CN1CCN(CCCOC(=O)Nc2cccc(Cn3nc(-c4cc(F)cc(F)c4)ccc3=O)c2)CC1` [A91, 3-(4-Methylpiperazin-1-yl)propyl {3-[3-(3,5-difluorophenyl)-6-oxo-6H-pyridazin-1-ylmethyl]phenyl}carbamate] here?
The value was “significant antitumoural action”.

What about the IC50 (Met kinase) of the same compound?
Its IC50 is 10 to 1000 nM.
